# Experimental data: patent US20080103191A1, “ENTACAPONE-DERIVATIVES” (priority 2006, published 2008)
# Where two headings read alike, the source gives them in different places.
# Experiments:
# [1] = Chemical hydrolysis stability at pH 1 and pH 7.4 (HPLC); assay type: physicochemical; conditions: 37° C., over 12 h
# Procedure: The stability of compounds of the present invention is tested at pH 1 and at pH 7.4. The testing is carried out by the following HPLC method:
# Chemical hydrolysis rates t1/2 [h] of selected compounds of formula I are determined in 0.1 N HCl (pH 1) and PBS buffer (pH 7.4) solution. Solutions are prepared by dissolving an appropriate amount of compound in 0.1 N HCl and PBS buffer solution. Samples were withdrawn at designated time intervals and analysed for remaining prodrug by HPLC at 37° C. over 12 h.
# Reversed phase gradient HPLC method, column YMC Pro C8, 50 mm×4.0 mm, 3 μm, Eluent A: Water:trifluoroacetic acid (100:0.5 (v/v)), Eluent B: Acetonitrile:trifluoroacetic:acid (100:0.5 (v/v)). Column temperature 30° C., Flow rate 3.0 mL/min, Detection wavelength: 220 nm
# For evaluation, the peak area of the respective compound from the first injection is defined as 100% relative concentration. The peak areas of all other subsequent injections are calculated in percentage relating to this standard. (relative concentration in %). The relative concentrations are plotted in a logarithmic scale (ln) against the injection times. Based on the assumption of a first order kinetic, the rate constant and half life times (t1/2 [h]) can be calculated.
# [2] = Solubility in Labrasol and TPGS/PG formulations; assay type: physicochemical
# Procedure: Selected lipophilic carbonate compounds of formula I with promising Caco-2 permeabilities are formulated with different lipids/lipophilic excipients and/or micelles forming compounds in order to increase their solubilities. The following formulations are prepared by mixing the ingredients mentioned below: • i) Formulations comprising solubilizers in the form of lipides/lipophilic excipients: • ia) Formulation comprising Labrasol® and the selected compounds of Formula I • Labrasol®: • Caprylocaproyl macrogol-8-glyceride (CAS No. 85536-07-8 and 84963-88-2). This is a mixture of mono-, di- and triesters of glycerol and of PEG 400 with medium-chain fatty acids (C8-C10) which is marketed, for example, by Gattefossé under the mark Labrasol®; Labrasol® has an HLB value (hydrophil-lipophil-balance, Griffin, W. C.: Classification of surface active agents by HLB, J. Soc. Cosmet. 1, 1949) of 14 and has the following composition by weight:
# • ib) Formulation comprising NanoSolve® 5401 (Lipoid GmbH, Germany) and the selected compounds of formula I • ic) Formulation comprising TPGS/PG in a weight ratio of 25% by weight of TPGS to 75% by weight of PG and the selected compounds of formula I. • PG: propylene glycol • TPGS: Vitamin E TPGS NF (d-α-tocopheryl polyethylene glycol 1000 succinate) which is marketed, for example, by Eastman Chemical Co • ii) Formulation comprising a micelles forming agent: • iia) Aqueous formulation comprising 30% by weight of Cremophor® RH 40 (relating to the weight of the aqueous phase) in water and the selected compounds of formula I • Cremophor® RH 40: • Generic names: • Polyoxyl 40 Hydrogenated Castor Oil (USP/NF). • Macrogol-Glycerolhydroxystearat (DAB). • Polyoxyethylenglyceroltrihydroxystearat (DAC). • Cremophor RH 40 is a non-ionic solubilizer and emulsifying agent obtained by reacting 45 moles of ethylene oxide with 1 mole of hydrogenated castor oil. The main constituent of Cremophor RH 40 is glycerol polyethylene glycol oxystearate, which, together with fatty acid glycerol polyglycol esters, forms the hydrophobic part of the product. The hydrophilic part consists of polyethylene glycols and glycerol ethoxylate. Cremophor RH 40 is a white to yellowish thin paste at 20° C. The HLB value lies between 14 and 16. Cremophor RH 40 is marketed by BASF AG.
# The solubility of selected compounds of formula I in these formulations is measured and compared to the solubility of the compounds in 0.1N HCl (pH 1.0), PBS buffer (pH 7.4), and two simulated gastric fluids (i.e., FaSSIF (pH 6.5) simulating fasting sate and FeSSIF (pH 5.0) simulating fed state) (see above for details).
# [3] = Permeability in Caco-2 cells, apical to basolateral; assay type: in vitro ADME; design: dose or concentration left out as unconfirmed; conditions: human; 21d Caco-2 monolayer, apical pH 6.5 to basolateral pH 7.4, 60 minutes
# Description: The human adenocarcinoma cell line Caco-2 is used as an in vitro system to predict oral absorption. These cells serve as a model of small bowel tissue and permeation through these cells is a predictor for gastro-intestinal absorption. Further to being a model for oral absorption, permeability in Caco-2 cells may be predictive for the blood brain barrier permeability (P. Garberg et al.; Toxicology in vitro 19 (2005); 299-334). […] The permeability in Caco-2 cells has been tested by the following method:
# The permeability of selected compounds of formula I across Caco-2 (21d Caco-2-culture) monolayer in the apical to basolateral direction is investigated. Control substances were ^3H-propranolol and ^3H-mannitol.
# The nominal concentration of the test items is […]. The pH value is set to 6.5 for the apical transport medium and to 7.4 for the basolateral medium. Samples are obtained following 60 minutes (120 minutes for control samples) incubation from the basolateral receiver chamber. At sampling time approximately 600 μL of each well are transferred into an eppendorf vial and stored between −12° and −30° C. until HPLC or LC-MS/MS analysis. The control substances are quantified by liquid scintillation.
# [4] = Solubility in 0.1 N HCl, PBS buffer, FaSSIF and FeSSIF; assay type: physicochemical; conditions: thermodynamic from solid
# Procedure: For testing solubility, saturated solutions of selected compounds of formula I are prepared in four different systems and compared to the solubility of entacapone. The solubility is tested in 0.1 N HCl (pH 1), PBS buffer (pH 7.4) and in two simulated gastric fluids, FaSSIF at pH 6.5 (for fasting state) and FeSSIF at pH 5.0 (for fed state) at ambient temperature. The content of the FaSSIF simulated gastric fluid is as follows:
# The solubility testing is carried out by the following method: An excess amount of each compound is added to a 0.1 N HCl, PBS buffer, FeSSIF and FaSSIF. The suspensions are shaken for 10 min. After centrifugation the concentration is determined by HPLC. Reversed phase gradient HPLC method, column YMC Pro C8, 50 mm×4.0 mm, 3 μm, Eluent A: Water:trifluoroacetic acid (100:0.5 (v/v)), Eluent B: Acetonitrile:trifluoroacetic:acid (100:0.5 (v/v)). Column temperature 30° C., Flow rate 3.0 mL/min, Detection wavelength: 220 nm
# [5] = Log D (pH 7.4) by isocratic HPLC; assay type: physicochemical; conditions: YMC Pro C18 column, phosphate buffer pH 7.4/acetonitrile 45/55
# Procedure: LogD is an indicator for absorption and lipophilicity for ionized compounds under defined pH conditions and is measured by applying an isocratic HPLC Method at pH 7.4.
# The log D has been tested at pH 7.4. The testing has been carried out by the following method: Isocratic HPLC method: Column YMC Pro C18, 150 mm×4.0 mm, 3 μm, Eluent Phosphate buffer pH 7.4/acetonitrile (45/55, (v/v)), Runtime 15-60 min, Flow rate 1.2 ml/min, Detection wavelength: 220 nm
# [6] = Storage stability at ambient temperature; assay type: physicochemical; conditions: glass bottles, more than two years, reanalysis by HPLC/MS and NMR
# [7] = Labrasol, oil or lipid, read-out: Solubility Labrasol ®
# [8] = 0.1 N HCl, pH 1, simulated gastric fluid, Table 11, maximum solubility, read-out: Solubility 0.1N HCl pH 1.0
# [9] = 0.1 N HCl, pH 1, simulated gastric fluid, ambient temperature, shaken 10 min, read-out: Solubility 0.1N HCl Ph 1.0
# [10] = FaSSIF, pH 6.5, fassif, Table 11, read-out: Solubility FaSSIF pH 6.5
# [11] = FaSSIF, pH 6.5, fassif, fasting state fluid, ambient temperature, read-out: Solubility FaSSIF Ph 6.5
# [12] = FeSSIF, pH 5, fessif, Table 11, read-out: Solubility FeSSIF pH 5.0
# [13] = FeSSIF, pH 5, fessif, fed state fluid, ambient temperature, read-out: Solubility FeSSIF Ph 5.0
# [14] = PBS buffer, pH 7.4, aqueous buffer, Table 11, read-out: Solubility PBS pH 7.4
# [15] = PBS buffer, pH 7.4, aqueous buffer, ambient temperature, read-out: Solubility PBS Ph 7.4
SMILES,"half-life ([1]; pH 1, 0.1 N HCl, read-out: t1/2 at pH 1 (converted))","half-life ([1]; pH 7.4, PBS buffer, read-out: t1/2 at pH 7.4 (converted))","solubility [2, 7]","solubility ([2]; organic solvent or mixture, 25% by weight TPGS, 75% by weight PG, read-out: Solubility TPGS/PG)",Papp A→B at 60 min [3],"solubility at 10 min [4, 8]","solubility at 10 min [4, 9]","solubility at 10 min [4, 10]","solubility at 10 min [4, 11]","solubility at 10 min [4, 12]","solubility at 10 min [4, 13]","solubility at 10 min [4, 14]","solubility at 10 min [4, 15]",chromatographic logD [5],t1/2 at pH 1 ([1]; 0.1 N HCl),t1/2 at pH 7.4 ([1]; PBS buffer),degradation on storage [6]
"CCC(CC)OC(=O)Oc1cc(/C=C(\C#N)C(=O)N(CC)CC)cc([N+](=O)[O-])c1O [Compound 10, Carbonic acid 5-((E)-2-cyano-2-diethylcarbamoyl-vinyl)-2-hydroxy-3-nito-phenyl ester 1-ethyl-propyl ester]",38.5 h,38.5 h,22000 µg/mL,3900 µg/mL,22.4 ×10⁻⁶ cm/s,30 µg/mL,30 µg/mL,840 µg/mL,840 µg/mL,1330 µg/mL,190 µg/mL,190 µg/mL,1330 µg/mL,1.8,–,–,–
"CCN(CC)C(=O)/C(C#N)=C/c1cc(O)c(O)c([N+](=O)[O-])c1 [entacapone, (E)-N,N-diethyl-2-cyano-3-(3,4-dihydroxy-5-nitrophenyl)acrylamide]",–,–,23000 µg/mL,–,17 ×10⁻⁶ cm/s,50 µg/mL,50 µg/mL,150 µg/mL,150 µg/mL,990 µg/mL,990 µg/mL,1350 µg/mL,1350 µg/mL,0.5,stable,stable,without degradation
